Assay results: patent US20240082218A1, “PHARMACEUTICAL COMBINATIONS COMPRISING A KRAS G12C INHIBITOR AND USES OF A KRAS G12C INHIBITOR FOR THE TREATMENT OF CANCERS” (priority 2020, published 2024)

Tested on: Lu99 KRAS G12C lung carcinoma xenograft
Test: Anti-tumor efficacy in Lu99 KRAS G12C lung carcinoma xenografts
Assay type: in vivo, mice
Details: Lu99, oral, Compound A 100 mg/kg once daily, alone or in combination
Procedure: It carries the allele NM_033360.4(KRAS):c.34G>T and consequently a heterozygous KRAS Gly12Cys mutation. Lu99 cells were grown in sterile conditions in a 37° C. incubator with 5% CO2 for two weeks. The cells were kept in RPMI media supplemented with 10% FCS, 2 mM L-Glutamin, 1 mM sodium pyruvate and 10 mM HEPES, and split 1:6 every 3 days. […] On the day of injection, cells were harvested after 8 passages in total, including passages from the vendor. Cells were resuspended in 50% HBSS and 50% Matrigel at a final concentration of 10·10^6 cells/ml.
Experiments were performed with female nude mice (Charles River Laboratories, Crl:NU(NCr)-Foxn1nu Homozygous). […] Animals were allowed to accommodate at least for 7 days.
Mice were injected subcutaneously with Lu99 human NSCLC cells to induce xenograft tumors and randomized into treatment groups when the mean tumor volume reached ˜250 mm^3.
The control group received a solution of 0.1% Tween 80 (Fisher Scientific AG #BP338-500) and 0.5% Methylcellulose in water.
The treatment period was between 9 to 28 days, depending on the groups.
Tumor growth was monitored regularly post cell inoculation and animals were randomized into treatment groups (n=6) when TV reached appropriate volume. During the treatment period, xenograft tumor sizes were measured about 2-3 times per week manually with calipers, and the TV was estimated in mm^3 using the formula: Length×Width^2/2.
Mice were injected subcutaneously with Lu99 human NSCLC cells to induce xenograft tumors and randomized into treatment groups when the mean tumor volume reached ˜200 mm^3. […] The treatment period was between 14 to 35 days, depending on the groups. Animals treated with vehicle were terminated at day 14. […] Tumor volumes were recorded and are represented as mean±SEM (standard error of the mean) for each group. Anti-tumor response of treatment groups vs. vehicle group was calculated at day 14 as % T/C or % regression.

## C[C@@H]1OCC2(CCN(c3cnc(Sc4ccnc(N)c4Cl)c(N)n3)CC2)[C@@H]1N [TNO155, (3S,4S)-8-(6-amino-5-((2-amino-3-chloropyridin-4-yl)thio)pyrazin-2-yl)-3-methyl-2-oxa-8-azaspiro[4.5]decan-4-amine]
TNO155 10 mg/kg twice daily continuous
  anti-tumor response (Example 7): slight tumor growth delay
TNO155 10 mg/kg twice daily, up to 28 days
  anti-tumor response (Example 6): moderate anti-tumor response
